Assays:
[1] = system: juvenile soft ticks (Ornithodoros moubata); assay: Guinea pig - efficacy against argaside tick; type: in vivo
How it was run: (§1)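 Guinea pigs given 5 mg/kg test compound orally (gavage) or s.c. in 10% DMF/emulsifier plus 90% water for injection, with local co-infestations of Ornithodoros moubata juveniles and Cimex lectularius at several post-treatment times. Engorged parasites scored dead/damaged about 24 h after collection; % inhibition versus pretreatment baseline by modified Schneider-Orelli formula.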

[2] = system: Copepodids (juvenile sea lice stage of Lepeophtheirus salmonis); assay: Juvenile sea lice contact assay; details: Lepeophtheirus salmonis, ~24 h, read-out: Sea lice inhibition (% of dead+damaged copepodids); for inhibition at 0.01 µM: 10 nM in seawater
Protocol: Copepodids (juvenile sea lice stage of Lepeophtheirus salmonis) were exposed to seawater spiked with declining concentrations of a test compound (dissolved in a DMSO sea-water mixture). Sea lice inhibition (% of dead+damaged copepodids) was assessed after approximately 24 hours of continuous exposure. The vitality of used parasites was confirmed in a negative (solvent) control group.

[3] = system: Fly larvae I (Lucilia cuprina); assay: Fly larvae contact/feeding assay; details: 48 h, read-out: Inhibition of fly larvae development
Protocol: Fly larvae I (Lucilia cuprina) were grown in medium spiked with declining concentrations of a test compound (dissolved in a DMSO-emulsifier-deionized water mixture). Inhibition of fly larvae development (%) was assessed after approximately 48 hours of continuous exposure. The vitality of used parasites was confirmed in negative control groups (i.e., an untreated control and a solvent control).

[4] = system: Rhipicephalus microplus tick larvae; assay: Tick larvae contact assay; details: ~3 min immersion, assessed ~24 h after, read-out: Tick inhibition (% of damage+dead ticks)
Protocol: Tick larvae (Rhipicephalus microplus) were immersed for approximately 3 minutes in declining concentrations of a test compound (dissolved in a DMSO-emulsifier-deionized water mixture). Tick inhibition (% of damage+dead ticks per test concentration) was assessed approximately 24 hours after contact exposure. The vitality of used parasites was confirmed in negative control groups (i.e. an untreated control and a solvent control).

[5] = system: bed bugs (Cimex lectularius); assay: Guinea pig - efficacy against bed bug; type: in vivo
How it was run: as §1

Lepeophtheirus salmonis [6] = assay: Salmon - in vivo efficacy against sea lice using gavage administration; details: po, 168 h, read-out: therapeutic efficacy against (pre-)adult sea lice (% reduction vs control), salmon, 5 mg/kg once by gavage, day -28 infestation, counted day 7
Lepeophtheirus salmonis [7] = assay: as above; details: 5 mg/kg once by gavage, day -3 infestation, counted around day 28
Protocol: Salmon (Salmo solar) were treated once orally by gavage at a dose of 5 mg/kg bodyweight per fish (Day 0). As formulation DMSO 5%/fish oil 95% was used. Salmon of the negative control group received only the excipients of the formulation.
The fish were infested with Lepeophtheirus salmonis copepodids twice before treatment (i.e., around day −28 and day −3) and once after treatment (i.e., day 17).
Around day 28 (end of animal phase), fish were euthanized, and lice on each fish were classified ((pre-)adult or juvenile stage) and counted. […] Efficacy is expressed as a % reduction of sea lice in treated groups versus a control group, using the Abbott's formula.

[8] = system: Adult fleas (Ctenocephalides felis); assay: Flea feeding assay; details: 1 ppm in blood, ~48 h membrane feeding, read-out: flea inhibition (% of dead+damaged fleas)
Protocol: Adult fleas (Ctenocephalides felis) of defined age were fed on artificial membranes with blood spiked with declining concentrations of a test compound (dissolved in a DMSO-emulsifier-blood mixture). After approximately 48 hours of continuous feeding, flea inhibition (i.e., % of dead+damaged fleas per test concentration) was assessed. The vitality of used parasites was confirmed in negative control groups (i.e., an untreated control and a solvent control).

[9] = system: Mobile stages of sea lice (pre-adults, adults of Lepeophtheirus salmonis); assay: Adult sea lice contact assay; details: pre-adults/adults, assessed after ~1 and 24 h, read-out: EC50 (sea lice inhibition, dead+damaged)
Protocol: Mobile stages of sea lice (i.e., pre-adults, adults of Lepeophtheirus salmonis) were exposed to seawater spiked with declining concentrations of a test compound (dissolved in a PEG sea-water mixture). Sea lice inhibition (% of dead+damaged sea lice) was assessed after approximately 1 and 24 hours of continuous exposure in comparison to a negative (solvent) control group.

[10] = 5 mg/kg subcutaneous, after 7 days
[11] = 5 mg/kg subcutaneous, after 10 days
[12] = 5 mg/kg subcutaneous, after 14 days
[13] = 5 mg/kg subcutaneous, after 17 days
[14] = 5 mg/kg, at least until Day 10, both administration routes (oral, subcutaneous)

CN(C(=O)c1cc(NC(=O)[C@H]2[C@H](c3cc(Cl)cc(Cl)c3)C2(Cl)Cl)ccc1Cl)c1ccc(F)cc1 [Compound 51]
activity against tick nymphs (≥80% inhibition, killed+damaged) ([1]; 5 mg/kg oral, Day 0): immediate activity | activity against tick nymphs (≥80% inhibition, killed+damaged) ([1]; 5 mg/kg oral, after 7 days): activity | activity against tick nymphs (≥80% inhibition, killed+damaged) ([1]; 5 mg/kg subcutaneous, Day 0): immediate activity | activity against tick nymphs (≥80% inhibition, killed+damaged) [1, 10]: activity | activity against tick nymphs (≥80% inhibition, killed+damaged) [1, 11]: activity | activity against tick nymphs (≥80% inhibition, killed+damaged) [1, 12]: activity | activity against tick nymphs (≥80% inhibition, killed+damaged) [1, 13]: activity | duration of efficacy, subcutaneous compared with oral administration ([1]; 5 mg/kg, ticks and bed bugs): longer duration of efficacy | inhibition at 0.1 µM ([2]; 100 nM in seawater): ≥ 80% | inhibition at 100 ppm [3]: 80% | inhibition at 25 µM ([4]; 25 μM): ≥ 80% | inhibition at 49 µM [4]: 80% | inhibition at 388 µM [4]: 80% | inhibition at 100 ppm [4]: 80% | activity against bed bugs (≥80% inhibition, killed+damaged) ([5]; 5 mg/kg oral, Day 0): immediate activity | activity against bed bugs (≥80% inhibition, killed+damaged) ([5]; 5 mg/kg oral, after 7 days): activity | activity against bed bugs (≥80% inhibition, killed+damaged) ([5]; 5 mg/kg subcutaneous, Day 0): immediate activity | activity against bed bugs (≥80% inhibition, killed+damaged) [5, 10]: activity | activity against bed bugs (≥80% inhibition, killed+damaged) [5, 11]: activity | activity against bed bugs (≥80% inhibition, killed+damaged) [5, 12]: activity | activity against bed bugs (≥80% inhibition, killed+damaged) [5, 13]: activity

O=C(Nc1ncc(F)cc1F)c1cc(NC(=O)[C@H]2[C@H](c3ccc(Cl)c(Cl)c3)C2(Cl)Cl)ccc1Cl [Compound 86]
activity against tick nymphs (≥80% inhibition, killed+damaged) ([1]; 5 mg/kg oral, Day 0): immediate activity | activity against tick nymphs (≥80% inhibition, killed+damaged) ([1]; 5 mg/kg oral, after 7 days): activity | activity against tick nymphs (≥80% inhibition, killed+damaged) ([1]; 5 mg/kg oral, after 10 days): activity | activity against tick nymphs (≥80% inhibition, killed+damaged) ([1]; 5 mg/kg subcutaneous, Day 0): immediate activity | activity against tick nymphs (≥80% inhibition, killed+damaged) [1, 10]: activity | activity against tick nymphs (≥80% inhibition, killed+damaged) [1, 11]: activity | effective to control ticks [1, 14]: 100% | inhibition at 0.01 µM [2]: 100% | inhibition at 100 ppm [3]: 80% | inhibition in vivo at 5 mg/kg (Lepeophtheirus salmonis [6]): 100% | therapeutic efficacy against juvenile sea lice (% reduction vs control) (Lepeophtheirus salmonis [7]): 100% | inhibition at 100 ppm [4]: 80% | inhibition at 1 ppm [8]: 80% | EC50 [9]: ≤ 0.01 µM | activity against bed bugs (≥80% inhibition, killed+damaged) ([5]; 5 mg/kg oral, Day 0): immediate activity | activity against bed bugs (≥80% inhibition, killed+damaged) ([5]; 5 mg/kg oral, after 7 days): activity | activity against bed bugs (≥80% inhibition, killed+damaged) ([5]; 5 mg/kg oral, after 10 days): activity | activity against bed bugs (≥80% inhibition, killed+damaged) ([5]; 5 mg/kg subcutaneous, Day 0): immediate activity | activity against bed bugs (≥80% inhibition, killed+damaged) [5, 10]: activity | activity against bed bugs (≥80% inhibition, killed+damaged) [5, 11]: activity | effective to control bed bugs [5, 14]: 100%

O=C(Nc1ncc(F)cc1F)c1cc(NC(=O)[C@H]2[C@H](c3ccc(F)c(Cl)c3)C2(Cl)Cl)ccc1Cl [Compound 89]
activity against tick nymphs (≥80% inhibition, killed+damaged) ([1]; 5 mg/kg oral, Day 0): immediate activity | activity against tick nymphs (≥80% inhibition, killed+damaged) ([1]; 5 mg/kg subcutaneous, Day 0): immediate activity | inhibition at 0.01 µM [2]: 100% | inhibition in vivo at 5 mg/kg (Lepeophtheirus salmonis [6]): 100% | therapeutic efficacy against juvenile sea lice (% reduction vs control) (Lepeophtheirus salmonis [7]): 100% | inhibition at 49 µM [4]: 80% | inhibition at 388 µM [4]: 80% | inhibition at 100 ppm [4]: 80% | inhibition at 1 ppm [8]: 80% | EC50 [9]: ≤ 0.01 µM | activity against bed bugs (≥80% inhibition, killed+damaged) ([5]; 5 mg/kg oral, Day 0): immediate activity | activity against bed bugs (≥80% inhibition, killed+damaged) ([5]; 5 mg/kg subcutaneous, Day 0): immediate activity

Reference: patent publication US20240315993A1, “ANTIPARASITIC COMPOUNDS” (Intervet Inc., priority 2021, published 2024)
